Data on three molecules can be found in paper PMC8280778, “^18F-ASEM Imaging for Evaluating Atherosclerotic Plaques Linked to α7-Nicotinic Acetylcholine Receptor” (Frontiers in Bioengineering and Biotechnology, 2021).

Data set [1] deals with α7nAChR. On the set-up: method as in Gao et al., 2013; Wang et al., 2018. As to conditions: affinity for α7nAChR; ref Gao et al., 2013; Wang et al., 2018; cited from earlier work.
For data set [2], the system named is α7nAChR. Details: method as in Gao et al., 2013; Wang et al., 2018. Conditions: specificity for α7nAChR; ref Gao et al., 2013; Wang et al., 2018; cited from earlier work.
In data set [3] the target is α7nAChR (Mus musculus, UniProt P49582). Here is the method: ApoE^–/– mice (n = 4; weight, 25–30 g) and normal mice (n = 4; weight, 25–30 g) were randomly selected; the chosen ApoE^–/– mice were fed with 21% fat and 0.15% cholesterol supplement for 11–12 weeks.
Chain of α7nAChR (Mus musculus, UniProt P49582) (P49582 23-502): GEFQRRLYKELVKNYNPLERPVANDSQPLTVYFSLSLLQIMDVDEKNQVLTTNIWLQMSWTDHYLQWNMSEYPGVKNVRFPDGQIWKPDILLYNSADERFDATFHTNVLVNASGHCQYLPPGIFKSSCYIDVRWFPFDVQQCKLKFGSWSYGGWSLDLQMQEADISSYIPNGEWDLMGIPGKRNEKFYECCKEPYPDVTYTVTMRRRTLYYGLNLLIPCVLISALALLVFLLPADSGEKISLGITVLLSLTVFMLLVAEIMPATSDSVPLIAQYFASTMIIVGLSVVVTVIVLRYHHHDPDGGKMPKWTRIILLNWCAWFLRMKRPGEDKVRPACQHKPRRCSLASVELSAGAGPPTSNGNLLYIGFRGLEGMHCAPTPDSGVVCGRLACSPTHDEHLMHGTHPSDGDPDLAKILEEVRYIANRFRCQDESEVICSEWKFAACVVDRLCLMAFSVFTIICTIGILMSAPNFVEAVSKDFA
The high-performance liquid chromatography (HPLC)-purified ^18F-ASEM [[…], dissolved in 0.2 ml normal saline, containing 5% dimethyl sulfoxide (DMSO)] was injected into tail vein of ApoE^–/– mice and normal mice. ApoE^–/– mice, positioned prone position, were anesthetized (1–2% isoflurane) through inhalation. After anesthesia, mice were injected with 5.56 MBq (150 μCi) ^18F-ASEM through the tail vein and underwent a dynamic imaging for 1 h. Dynamic PET scanning were carried out at 5, 10, 15, 30, and 60 min after injection, and biological distributions were analyzed as previously described by our group ([Wang et al., 2021]). Briefly, the regions of interest (ROIs) were cycled from 3D ordered subset expectation maximization (OSEM 3D) reconstruction images, then % ID/g value was calculated by Inveon Research Workplace 4.0 (IRW4.0).

For data set [4], the target named is T1, α7nAChR (Oryctolagus cuniculus, UniProt A0A0H4CUK0).
T1 construct: from tissue; host or cells: living New Zealand rabbits (abdominal aorta with atherosclerotic plaques)
T1 sequence (A0A0H4CUK0 25-504): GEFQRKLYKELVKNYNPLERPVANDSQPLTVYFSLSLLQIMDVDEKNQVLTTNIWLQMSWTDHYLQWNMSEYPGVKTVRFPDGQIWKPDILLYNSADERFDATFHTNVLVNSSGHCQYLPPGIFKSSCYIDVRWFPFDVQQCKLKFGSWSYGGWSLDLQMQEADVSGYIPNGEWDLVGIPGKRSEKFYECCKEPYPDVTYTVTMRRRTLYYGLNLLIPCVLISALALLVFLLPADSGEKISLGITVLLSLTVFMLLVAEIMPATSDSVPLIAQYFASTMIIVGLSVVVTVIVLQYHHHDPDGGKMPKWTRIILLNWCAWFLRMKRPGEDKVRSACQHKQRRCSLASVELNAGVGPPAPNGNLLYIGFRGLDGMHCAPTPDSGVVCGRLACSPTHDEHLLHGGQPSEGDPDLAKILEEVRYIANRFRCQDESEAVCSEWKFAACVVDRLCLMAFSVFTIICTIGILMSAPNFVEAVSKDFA
In words: PET/CT imaging of abdominal aorta atherosclerotic plaques in New Zealand rabbits. Conditions: model rabbits, PET/CT 30 min after injection. The class given is in vivo. Here is the method:
New Zealand rabbits (n = 4; weight, 2.5–3.0 kg) were fed with high-fat diet for 14 weeks. The balloon-sprained and injured experiment was carried out at the third week after 2 weeks of high-fat diet. First, rabbits were anesthetized by 10% chloral hydrate, a 3-cm incision was conducted in the right inguinal area to expose the right femoral artery; then, the right femoral artery was punctured by Seldinger technique. Second, an angiographic catheter with double lumen balloon was sent to the aortic arch under fluoroscopy. Third, the balloon was bulged and pulled down to the bifurcation of the distal iliac artery of the abdominal aorta for three times. Lastly, the catheter and sheath were removed, and the operational incisions were sutured (Figure 2).
First, rabbits (n = 4) were anesthetized by 10% chloral hydrate (2 ml/kg). Then, ^18F-ASEM solution (74 MBq in 0.2 ml normal saline) was injected into the right ear vein of rabbits. After that, the imaging procedure was conducted 30 min after injection of ^18F-ASEM and lasted for 10 min performed by PET/CT (Discovery IQ 2.0 GE). The injection of ^18F-FDG (74 MBq in 0.2 ml normal saline) and PET/CT imaging were performed in the same strategy on the next day. The reconstruction mode was super iterative. The % ID/g value was worked out in the same protocol as mentioned above through IRW 4.0 software.

Data set [5] in a line: biological distribution of the tracer in normal mice (dynamic PET). Format: in vivo.

Where two headings read alike, the source gives them in different places.

The term Ki denotes a dissociation constant, usually derived from enzyme kinetics or from competition with a known ligand. As to `O=S1(=O)c2cc(N3CCN4CCC3CC4)ccc2-c2cccc(F)c21` [^18F-ASEM], the Ki on α7nAChR [1] is 400 pM.
On to `O=S1(=O)c2cc(N3CCN4CCC3CC4)ccc2-c2cccc([18F])c21` [^18F-ASEM], for which, in the data set on α7nAChR [2], the BPND is reported as 3.9–6.6. Also, the “uptake in the arteries” value turned out to be 4.05 ± 0.64 ID%/g on α7nAChR [3] (ApoE–/– mice); 4.39 ± 1.08 ID%/g on α7nAChR [3] (ApoE–/– mice, 5 min after injection); 4.20 ± 0.46 ID%/g at α7nAChR [3] (ApoE–/– mice, 15 min after injection); 3.80 ± 0.43 ID%/g at α7nAChR [3] (ApoE–/– mice, 60 min after injection); 2.40 ± 0.41 ID%/g at α7nAChR [3] (control group mice); 2.35 ± 0.58 ID%/g at α7nAChR [3] (control group mice, 5 min after injection). The “uptake in the arteries” value at α7nAChR [3] (control group mice, 15 min after injection) is reported as 2.46 ± 0.34 ID%/g; on α7nAChR [3] (control group mice, 60 min after injection) it was 2.70 ± 0.28 ID%/g. Also, the “uptake in the carotid artery (PET imaging)” value on α7nAChR [3] (ApoE–/– mouse) is reported as “more ^18F-ASEM gathering”. Besides, the “PET signal in the normal group” value at α7nAChR [3] (normal mice) is “no signal”. For the same molecule, the “uptake in plaques at abdominal arterial scratches zones” value on α7nAChR [4] is “remarkable uptake”. In addition, the “time of peak uptake in the kidney” value in data set [5] (after injection) is reported as 5 min. Also, the “time of peak uptake in the liver” value in data set [5] (after injection) turned out to be 15 min. For the same molecule, in data set [5] (compared with other organs), the “uptake in the muscle” value is reported as “lowest uptake”.
With ^18F-FDG, the “uptake in the carotid artery (PET imaging)” value on α7nAChR [3] (mouse, in vivo) is reported as “slight”.
